Results: article PMC10744608, “Simplified Synthesis of Renieramycin T Derivatives to Target Cancer Stem Cells via β-Catenin Proteasomal Degradation in Human Lung Cancer” (Marine Drugs, 2023)

What was measured:
Format in all cases: cell-based, human
A549 cells [1] = experiment: Proliferation assay (MTT)
Experimental: (§1) An MTT assay was employed to evaluate the antiproliferative impact of the right-half RT analog, DH_32, over a period of three consecutive days. The human NSCLC cells lines A549, H23, and H292 were seeded at a cell density of 2 × 10^3 cells per well in a 96-well plate. The cells were exposed to low concentrations (0, 25, 50, and 100 nM) of DH_32 at various time points (0 h, 24 h, 48 h, and 72 h) and then incubated under 5% CO2 at 37 °C. Subsequently, the cell viability was assessed using an MTT assay at 0 h, 24 h, 48 h, and 72 h. The percentage of cell proliferation was determined by dividing the optical density (OD) of the cells at each time point by the OD of the non-treated control cells. In this experiment, RT served as the positive control.

H292 cells [2] = experiment: Proliferation assay (MTT); settings: H292, 24 h, 25 nM
Experimental: as §1

H23 cells [3] = experiment: Proliferation assay (MTT); settings: H23, 24 h, 25 nM
Experimental: as §1

A549 cells [4] = experiment: Nuclear staining assay (Hoechst 33342/PI); settings: A549, 0.5 μM, 24 h; for percentage of apoptosis: Hoechst 33342; for percentage of dead cells: PI staining
Experimental: (§2) The assessment of apoptosis and dead cell counts was performed through costaining with Hoechst 33342 and propidium iodide (PI). Human NSCLCs (1 × 10^4 cells per well) were seeded in a 96-well plate, incubated at 37 °C, and exposed to all right-half RT analogs at a concentration of 0.5 μM. After treatment, the cells were rinsed with PBS and subjected to co-staining with Hoechst 33342 (10 μg/mL) and propidium iodide (PI) (0.02 μg/mL) for 30 min at 37 °C. Fluorescence microscopy (Olympus 1X51 with a DP70 digital camera, Tokyo, Japan) was utilized to observe the fragmented nuclei indicative of apoptotic cells stained with Hoechst 33342 and the positive PI staining for dead cells. Subsequently, the percentages of apoptosis and dead cells were calculated. In this experiment, RT at a concentration of 0.5 μM served as the positive control.

H292 cells [5] = experiment: Nuclear staining assay (Hoechst 33342/PI); settings: H292, 0.5 μM, 24 h; for percentage of apoptosis: Hoechst 33342; for percentage of dead cells: PI staining
Experimental: as §2

H23 cells [6] = experiment: Nuclear staining assay (Hoechst 33342/PI); settings: H23, 0.5 μM, 24 h; for percentage of apoptosis: Hoechst 33342; for percentage of dead cells: PI staining
Experimental: as §2

BEAS2B cells = experiment: MTT cell viability assay, normal cells; settings: for IC50: BEAS2B normal cells, 24 h treatment, MTT
H292 cells [7] = experiment: MTT cell viability assay
Experimental: The cell viability was assessed using an MTT assay, determining the half-maximal inhibitory concentration (IC50) to screen right-half RT analogs (DH_18, DH_21, DH_32, DH_35, DH_38, and DH_39). Human NSCLC cells (A549, H23, and H292) were seeded in a 96-well cell culture plate at a density of 1 × 10^4 cells per well and incubated for 24 h at 37 °C. Subsequently, the culture medium was aspirated, and a complete medium with varying concentrations (0–100 μM) of right-half RT analogs was added for 24 h. Following the removal of the compound-containing medium, an MTT reagent at a concentration of 4 mg/mL was applied and incubated for 3 h at 37 °C. The MTT reagent was replaced with 100 μL of DMSO to dissolve the formazan crystals. The measurement of the formazan product was conducted at 570 nm utilizing a microplate reader. RT served as the positive control in this experiment.

A549 cells [8] = experiment: Colony formation assay; settings: A549, 25 nM, 24 h treatment then 7 days growth
Experimental: (§3) A clonogenic or colony formation assay was utilized to explore the capability of cancer cells to proliferate from single cells and form tumor colonies in response to DH_32 treatment. A single-cell suspension of NSCLC cells (A549, H23, and H292) was seeded at a density of 250 cells per well in a 6-well plate and permitted to adhere for 12 h. The cells were treated to different concentrations of DH_32 (0, 25, 50, and 100 nM) for a duration of 24 h. Subsequently, the medium containing the drug was aspirated, and fresh complete medium was introduced. The colonies were cultured for a period of 7 days, with the medium being renewed every 2 days. The colonies were washed with PBS, followed by fixation using a solution of methanol and acetic acid (3:1 v/v) for 5 min. Subsequently, they were stained with crystal violet (0.05% w/v in 4% paraformaldehyde) for 30 min. The excess crystal violet stain was washed away with distilled water until a clear background was obtained, and the samples were left to air-dry at room temperature. The colonies were photographed, and the captured images were analyzed using ImageJ software to determine the count of stained colonies. In this experiment, RT served as the positive control.

H292 cells [9] = experiment: Colony formation assay; settings: H292, 25 nM, 24 h treatment then 7 days growth
Experimental: as §3

H23 cells [10] = experiment: Colony formation assay; settings: H23, 25 nM, 24 h treatment then 7 days growth
Experimental: as §3

[11] = tested on: β-catenin in A549, H292, and H23 cells; experiment: Immunofluorescence of β-catenin; settings: 24 h; DH_32 0–100 nM, RT 25 nM
Experimental: A549, H23, and H292 NSCLC cells were seeded at a concentration of 1 × 10^4 cells per well in 96-well plates. The cells were exposed to different concentrations of DH_32 (0, 25, 50, and 100 nM) for 24 h, after which the medium was removed. Following that, the cells were subjected to fixation with 4% paraformaldehyde for 15 min. The cells were permeabilization with 0.5% Triton-X for 5 min, followed by the blocking of non-specific proteins with 10% FBS in 0.1% Triton-X PBS for 1 h at room temperature. The cells were exposed to a 1:400 dilution of primary antibodies (CD133, CD44, ALDH1A1, OCT4, NANOG, SOX2, and β-catenin) and incubated at 4 °C overnight. On the subsequent day, the cells were treated with a 1:500 dilution of the following secondary antibodies: Alexa Fluor 594-conjugated goat anti-rabbit IgG (H+L) (Invitrogen) and Alexa Fluor 488-conjugated goat anti-mouse IgG (H+L) (Invitrogen). Simultaneously, the localization of nuclei was stained with Hoechst 33342 for 1 h at room temperature. The cells were rinsed with PBS and then covered with 50% glycerol. The images were captured by a fluorescence microscope (Olympus IX 51 with DP70; Olympus America Inc., Center valley, PA, USA). The fluorescence intensity was measured by Image J software. RT acted as the positive control for this experiment.

[12] = A549, 48 h, DH_32 25, 50, and 100 nM, RT 25 and 50 nM

Row | Compound | proliferation rate (A549 cells [1]; A549, 24 h, 50 and 100 nM) | proliferation rate (A549 cells [1]; [12]) | proliferation rate (H292 cells [2]) | proliferation rate (H23 cells [3]) | percentage of apoptosis (A549 cells [4]) [%] | percentage of dead cells (A549 cells [4]) [%] | percentage of apoptosis (H292 cells [5]) [%] | percentage of dead cells (H292 cells [5]) [%] | percentage of apoptosis (H23 cells [6]) [%] | percentage of dead cells (H23 cells [6]) [%] | β-catenin level by immunofluorescence [11] | other results
1 | COC1=C(C)C(=O)C2=C(C1=O)[C@@H]1CN(Cc3ccc4ccccc4c3)[C@@H](C#N)[C@H](C2)N1C [DH_32, (1R,4R,5S)-9-methoxy-8,11-dimethyl-3-(naphthalen-2-ylmethyl)-7,10-dioxo-1,2,3,4,5,6,7,10-octahydro-1,5-epiminobenzo[d]azocine-4-carbonitrile] | decreased proliferation rate | significant reduction in cell proliferation | substantial reduction in the proliferation rate | substantial reduction in the proliferation rate | 29.33 ± 0.51 | 23.38 ± 0.96 | 34.13 ± 0.97 | 29.82 ± 1.26 | 39.29 ± 1.88 | 35.07 ± 1.67 | decrease in the fluorescence signal of β-catenin | selectivity index (SI) (BEAS2B cells; BEAS2B cells versus A549): 1.25; selectivity index (SI) (BEAS2B cells; BEAS2B cells versus H23): 2.44; selectivity index (SI) (BEAS2B cells; BEAS2B cells versus H292): 3.47; IC50 (BEAS2B cells; Homo sapiens, BEAS-2B): 5.06 ± 0.22 µM; IC50 (H292 cells [7]; Homo sapiens, NCI-H292, H292, 24 h treatment): 1.46 ± 0.06 µM; inhibition at 0.025 µM (A549 cells [8]; Homo sapiens, read-out: colony formation inhibition rate): 90.83 ± 0.1%; inhibition at 0.025 µM (H292 cells [9]; Homo sapiens, NCI-H292, read-out: colony formation inhibition rate): 79.74 ± 0.14%; inhibition at 0.025 µM (H23 cells [10]; Homo sapiens, NCI-H23, read-out: colony formation inhibition rate): 78.49 ± 0.08%
2 | CC=C(C)C(=O)OCC1c2c(c(O)c(C)c3c2OCO3)CC2C3C4=C(CC(C(C#N)N12)N3C)C(=O)C(C)=C(OC)C4=O (centres unmarked) [RT, Renieramycin T] | did not affect the proliferation | did not exhibit any effect | did not exhibit any change in their proliferation rate | did not exhibit any change in their proliferation rate | 24.95 ± 1.32 | 21.60 ± 0.99 | 29.63 ± 0.47 | 26.31 ± 1.04 | 33.41 ± 0.53 | 31.15 ± 0.48 | unaltered level of β-catenin | IC50 (BEAS2B cells): 1.18 ± 0.02 µM; IC50 (H292 cells [7]; H292, 24 h treatment): 1.52 ± 0.05 µM; colony formation inhibition rate (A549 cells [8]): 72.58 ± 0.07%; colony formation inhibition rate (H292 cells [9]): 32.22 ± 0.05%; colony formation inhibition rate (H23 cells [10]): 58.75 ± 0.01%
